The values below are quoted from earlier work in patent US9114602B2, “Process for making lithographic printing plate” (FUJIFILM Corporation, priority 2011, dated 2015).

For the data set the following is noted: at 20° C.
On to `CCC(C)CO` (centres unmarked) [2-methyl-1-butanol], for which the solubility in water is recorded as 3.0 g/100 mL.

As for `CC(C)CCO` [3-methyl-1-butanol], the solubility in water is recorded as 2.7 g/100 mL.

For `CC(C)C(C)O` (centres unmarked) [3-methyl-2-butanol], the solubility in water was 5.6 g/100 mL.

As to `CC(C)CC(C)O` (centres unmarked) [4-methyl-2-pentanol], the solubility in water is 2.0 g/100 mL.

Take `CCCCCCOCCO` [Ethylene glycol mono-n-hexyl ether, reference compound]: the solubility in water is on record as 1.0 g/100 mL.

In the case of `CCCCCO` [Example 1-pentanol, 1-pentanol], the solubility in water is given as 2.7 g/100 mL.

Take `CCCC(C)O` (centres unmarked) [Example 2-pentanol, 2-pentanol]: the solubility in water is recorded as 4.5 g/100 mL.

Consider `CCCC(C)=O` [Example 2-pentanone, 2-pentanone], for which the solubility in water is reported as 4.0 g/100 mL.

For the compound `CCC(O)CC` [Example 3-pentanol, 3-pentanol], the solubility in water was 5.2 g/100 mL.

With `OCc1ccccc1` [benzyl alcohol], the solubility in water is reported as 4.0 g/100 mL.

In the case of `CCC(=O)CC` [diethyl ketone], the solubility in water is 1.7 g/100 mL.

With `CCCCOCCOCCOC(C)=O` [diethylene glycol monobutyl ether acetate], the solubility in water is recorded as 6.5 g/100 mL.

On to `OCCOc1ccccc1` [ethylene glycol monophenyl ether], for which the solubility in water is reported as 2.7 g/100 mL.

For `CC(=O)OC(C)C` [isopropyl acetate], the solubility in water is 4.3 g/100 mL.

On to `CC(C)(C)CO` [neopentyl alcohol], for which the solubility in water is listed as 3.5 g/100 mL.

As for `CCCOC(C)=O` [propyl acetate], the solubility in water is 1.6 g/100 mL.

As to `CCCCOCC(C)O` (centres unmarked) [propylene glycol mono-n-butyl ether], the solubility in water is reported as 4.4 g/100 mL.
